The values below come from patent US20250163104A1, “MACROCYCLIC IMMUNOMODULATORS” (priority 2021, published 2025).

In this assay the target is T1, human PD-1 / PD-L1-Ig binding on Jurkat cell line over-expressing human PD-1 (Jurkat-PD-1) (Homo sapiens, UniProt Q15116).
T1 construct: expressed in transfected cells; host or cells: Jurkat
In words: Jurkat-PD-1 Cell Binding High-Content Screening Assay (CBA). Type of assay: cell-based. The following applies: PE-labeled PD-L1-Ig 20 nM final. In outline:
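Read-out: high-content imaging of PE-tagged PD-L1-Ig bound to Jurkat cells overexpressing human PD-1, after fixation with 4% paraformaldehyde and Hoechst 33342 nuclear staining. Ligand was used at 20 nM final for 1 hour, after a 2 h compound exposure at 37° C in serum-containing DMEM.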

[1] abbreviates: Jurkat-PD-1 cells, read-out: Jurkat HPD1_PDL1 IC50.

Molecules are shown by their SMILES. Where two headings read alike, the source gives them in different places. Where a SMILES comes first, the peptide text is derived from it. Bridges are numbered along the chain shown (N, C = ends). [ ]: non-standard residue; d: D form. The star is where a group is joined. ξ: configuration not given here. Phe(4-CONH2) = NC(=O)c1ccc(C[C@H](N)C(=O)O)cc1; Phe(4-COOH) = N[C@@H](Cc1ccc(C(=O)O)cc1)C(=O)O; Phe(4-CH2NH2) = NCc1ccc(C[C@H](N)C(=O)O)cc1; Bip = N[C@@H](Cc1ccc(-c2ccccc2)cc1)C(=O)O; Phe(4-CN) = N#Cc1ccc(C[C@H](N)C(=O)O)cc1; Phe(3-Me) = Cc1cccc(C[C@H](N)C(=O)O)c1; Val(3-OH) = CC(C)(O)[C@H](N)C(=O)O; 4Pal = N[C@@H](Cc1ccncc1)C(=O)O; Cha = N[C@@H](CC1CCCCC1)C(=O)O; Cit = NC(=O)NCCC[C@H](N)C(=O)O; Ile(3ξ) = CCC(C)[C@H](N)C(=O)O; Thr(3ξ) = CC(O)[C@H](N)C(=O)O; Tle = CC(C)(C)[C@H](N)C(=O)O; Carboxymethyl = O=C(O)C*; Orn = NCCC[C@H](N)C(=O)O; Dab = NCC[C@H](N)C(=O)O; Dap = NC[C@H](N)C(=O)O

T1 sequence (Q15116 25-288): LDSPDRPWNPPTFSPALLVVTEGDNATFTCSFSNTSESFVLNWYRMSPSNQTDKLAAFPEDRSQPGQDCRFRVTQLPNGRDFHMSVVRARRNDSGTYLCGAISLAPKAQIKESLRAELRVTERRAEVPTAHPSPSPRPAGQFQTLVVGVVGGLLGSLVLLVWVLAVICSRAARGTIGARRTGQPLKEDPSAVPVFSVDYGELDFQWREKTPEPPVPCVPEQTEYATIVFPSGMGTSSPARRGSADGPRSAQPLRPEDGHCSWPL

The term IC50 denotes the concentration that inhibits the measured activity by half. For `CC(C)C[C@H]1NC(=O)[C@H](CCCN)NC(=O)[C@H](CCC(=O)O)NC(=O)[C@H](Cc2ccc(-c3ccccc3)cc2)NC(=O)[C@H](C(C)C)NC(=O)[C@H](Cc2c[nH]c3ccccc23)NC(=O)[C@H](CC(=O)O)NC(=O)[C@H](Cc2ccc(C(=O)O)cc2)NC(=O)[C@H](CN)NC(=O)CSC[C@@H](C(=O)N[C@@H](C)C(N)=O)NC(=O)[C@H]([C@@H](C)O)NC(=O)[C@H](C(C)C)NC(=O)[C@H](CC2CCCCC2)NC(=O)[C@H](CCN)NC1=O` [Compound 2159], the IC50 under setting [1] is 10.4 nM.

Consider `Cc1cccc(C[C@@H]2NC(=O)[C@H](CC(=O)O)NC(=O)[C@H](Cc3ccc(OCC(=O)O)cc3)NC(=O)[C@H](C(C)O)NC(=O)CSC[C@@H](C(=O)N[C@@H](CCN)C(N)=O)NC(=O)[C@H](CO)NC(=O)[C@H](C(C)(C)O)NC(=O)[C@H](CC3CCCCC3)NC(=O)[C@H](CCN)NC(=O)[C@@H](CC(C)C)NC(=O)[C@H](CCCN)NC(=O)[C@H](Cc3ccc(O)cc3)NC(=O)[C@H](Cc3ccc(-c4ccccc4)cc3)NC(=O)[C@H](Cc3ccc(C(N)=O)cc3)NC2=O)c1` (stereo partly drawn) [Compound 2633] ({CH2CO}-[Thr(3ξ)]Y(Carboxymethyl)D[Phe(3-Me)][Phe(4-CONH2)][Bip]Y[Orn][dL][Dab][Cha][Val(3-OH)]SC[Dab]-NH2; thioether N-14), for which the IC50 under setting [1] worked out at 4 nM. Still for that read-out and setting: for `CCC(C)[C@@H]1NC(=O)[C@H](Cc2ccc(-c3ccccc3)cc2)NC(=O)[C@H](C(C)C)NC(=O)[C@H](Cc2cccc(C)c2)NC(=O)[C@H](CC(=O)O)NC(=O)[C@H](Cc2ccc(C(=O)O)cc2)NC(=O)[C@H](Cc2ccncc2)NC(=O)CSC[C@@H](C(=O)N[C@@H](CCN)C(N)=O)NC(=O)[C@H]([C@@H](C)O)NC(=O)[C@H](C(C)C)NC(=O)[C@H](CC2CCCCC2)NC(=O)[C@H](CCN)NC(=O)[C@@H](CC(C)C)NC(=O)[C@H](CCCN)NC1=O` (stereo partly drawn) [Compound 2301] the value was 14.8 nM; for `CC(C)C[C@H]1NC(=O)[C@H](CCCN)NC(=O)[C@H](CCCNC(N)=O)NC(=O)[C@H](Cc2ccc(-c3ccccc3)cc2)NC(=O)[C@H](C(C)C)NC(=O)[C@H](Cc2c[nH]c3ccccc23)NC(=O)[C@H](CC(=O)O)NC(=O)[C@H](Cc2ccc(CN)cc2)NC(=O)[C@H](CN)NC(=O)CSC[C@@H](C(=O)N[C@@H](C)C(N)=O)NC(=O)[C@H]([C@@H](C)O)NC(=O)[C@H](C(C)C)NC(=O)[C@H](CC2CCCCC2)NC(=O)[C@H](CCN)NC1=O` [Compound 2098] ({CH2CO}-[Dap][Phe(4-CH2NH2)]DWV[Bip][Cit][Orn][dL][Dab][Cha]VTCA-NH2; thioether N-14), 15.7 nM; for `CC(C)C[C@H]1NC(=O)[C@H](CCCN)NC(=O)[C@H](C(C)C)NC(=O)[C@H](Cc2ccc(-c3ccccc3)cc2)NC(=O)[C@H](C(C)C)NC(=O)[C@H](Cc2c[nH]c3ccccc23)NC(=O)[C@H](CC(=O)O)NC(=O)[C@H](Cc2ccc(OCC(=O)O)cc2)NC(=O)[C@H](CN)NC(=O)CSC[C@@H](C(=O)N[C@@H](C)C(N)=O)NC(=O)[C@H]([C@@H](C)O)NC(=O)[C@H](C(C)C)NC(=O)[C@H](CC2CCCCC2)NC(=O)[C@H](CC(N)=O)NC1=O` [Compound 1519] ({CH2CO}-[Dap]Y(Carboxymethyl)DWV[Bip]V[Orn][dL]N[Cha]VTCA-NH2; thioether N-14), 7.7 nM. The same measure, in the same setting: for `CC(C)[C@@H]1NC(=O)[C@H](Cc2c[nH]c3ccccc23)NC(=O)[C@H](CC(=O)O)NC(=O)[C@H](Cc2ccncc2)NC(=O)[C@H](CN)NC(=O)CSC[C@@H](C(=O)N[C@@H](C)C(N)=O)NC(=O)[C@H]([C@@H](C)O)NC(=O)[C@H](C(C)C)NC(=O)[C@H](CC2CCCCC2)NC(=O)[C@H](CCN)NC(=O)[C@@H](Cc2ccccc2)NC(=O)[C@H](CCCN)NC(=O)[C@H](CCC(=O)O)NC(=O)[C@H](Cc2ccc(-c3ccccc3)cc2)NC1=O` [Compound 1433] ({CH2CO}-[Dap][4Pal]DWV[Bip]E[Orn][dF][Dab][Cha]VTCA-NH2; thioether N-14) the value was 40.5 nM; for `CC[C@H](C)[C@@H]1NC(=O)[C@H](Cc2ccc(-c3ccccc3)cc2)NC(=O)[C@H](C(C)C)NC(=O)[C@H](Cc2cccc(C)c2)NC(=O)[C@H](CC(=O)O)NC(=O)[C@H](Cc2ccc(N=[N+]=[N-])cc2)NC(=O)[C@H](Cc2ccncc2)NC(=O)CSC[C@@H](C(=O)N[C@@H](C)C(N)=O)NC(=O)[C@H]([C@@H](C)O)NC(=O)[C@H](C(C)C)NC(=O)[C@H](CC2CCCCC2)NC(=O)[C@H](CCN)NC(=O)[C@@H](CC(C)C)NC(=O)[C@H](CCCN)NC1=O` [Compound 2240], 259 nM; for `CC(C)C[C@H]1NC(=O)[C@H](CCCN)NC(=O)[C@H](CCCNC(N)=O)NC(=O)[C@H](Cc2ccc(-c3ccccc3)cc2)NC(=O)[C@H](C(C)C)NC(=O)[C@H](Cc2c[nH]c3ccccc23)NC(=O)[C@H](CC(=O)O)NC(=O)[C@H](CC(=O)O)NC(=O)[C@H](CN)NC(=O)CSC[C@@H](C(=O)N[C@@H](C)C(N)=O)NC(=O)[C@H]([C@@H](C)O)NC(=O)[C@H](C(C)C)NC(=O)[C@H](CC2CCCCC2)NC(=O)[C@H](CCN)NC1=O` [Compound 2120] ({CH2CO}-[Dap]DDWV[Bip][Cit][Orn][dL][Dab][Cha]VTCA-NH2; thioether N-14), 964 nM.

For the compound `CC(C)C[C@H]1NC(=O)[C@H](CCCN)NC(=O)[C@H](CCC(=O)O)NC(=O)[C@H](Cc2ccc(-c3ccccc3)cc2)NC(=O)[C@H](C(C)C)NC(=O)[C@H](Cc2c[nH]c3ccccc23)NC(=O)[C@H](CC(=O)O)NC(=O)[C@H](Cc2ccc(C#N)cc2)NC(=O)[C@H](Cc2ccccc2)NC(=O)CSC[C@@H](C(=O)N[C@@H](C)C(N)=O)NC(=O)[C@H]([C@@H](C)O)NC(=O)[C@H](C(C)C)NC(=O)[C@H](CC2CCCCC2)NC(=O)[C@H](CCN)NC1=O` [Compound 2186] ({CH2CO}-F[Phe(4-CN)]DWV[Bip]E[Orn][dL][Dab][Cha]VTCA-NH2; thioether N-14), the IC50 under setting [1] stood at 45.2 nM.

Consider `CCC(C)[C@@H]1NC(=O)[C@H](Cc2ccc(-c3ccccc3)cc2)NC(=O)[C@H](C(C)C)NC(=O)[C@H](Cc2cccc(C)c2)NC(=O)[C@H](CC(=O)O)NC(=O)[C@H](Cc2ccc(C(=O)O)cc2)NC(=O)[C@H](Cc2ccncc2)NC(=O)CSC[C@@H](C(N)=O)NC(=O)[C@H](CCC(=O)O)NC(=O)[C@H](C(C)C)NC(=O)[C@H](CC2CCCCC2)NC(=O)[C@H](CCN)NC(=O)[C@@H](CC(C)C)NC(=O)[C@H](CCCN)NC1=O` (stereo partly drawn) [Compound 2277] ({CH2CO}-[4Pal][Phe(4-COOH)]D[Phe(3-Me)]V[Bip][Ile(3ξ)][Orn][dL][Dab][Cha]VEC-NH2; thioether N-14), for which the IC50 under setting [1] was 32.6 nM. On the same count and under the same terms, for `CC(C)C[C@H]1NC(=O)[C@H](CN)NC(=O)[C@H](C(C)C)NC(=O)[C@H](Cc2ccc(-c3ccccc3)cc2)NC(=O)[C@H](C(C)C)NC(=O)[C@H](Cc2c[nH]c3ccccc23)NC(=O)[C@H](CC(=O)O)NC(=O)[C@H](Cc2ccc(OCC(=O)O)cc2)NC(=O)[C@H](CN)NC(=O)CSC[C@@H](C(=O)NCC(N)=O)NC(=O)[C@H](CO)NC(=O)[C@H](C(C)C)NC(=O)[C@H](CC2CCCCC2)NC(=O)[C@H](CC(N)=O)NC1=O` [Compound 1652] ({CH2CO}-[Dap]Y(Carboxymethyl)DWV[Bip]V[Dap][dL]N[Cha]VSCG-NH2; thioether N-14) the value was 20.3 nM; for `Cc1cccc(C[C@@H]2NC(=O)[C@H](CC(=O)O)NC(=O)[C@H](Cc3ccc(OCC(=O)O)cc3)NC(=O)[C@H](Cc3ccncc3)NC(=O)CSC[C@@H](C(=O)N[C@@H](CCN)C(N)=O)NC(=O)[C@H](CO)NC(=O)[C@H](C(C)(C)O)NC(=O)[C@H](CC3CCCCC3)NC(=O)[C@H](CCN)NC(=O)[C@@H](CC(C)C)NC(=O)C(C3CCNCC3)NC(=O)[C@H](Cc3ccc(OCC(=O)O)cc3)NC(=O)[C@H](Cc3ccc(-c4ccccc4)cc3)NC(=O)[C@H](Cc3ccc(OCC(=O)O)cc3)NC2=O)c1` (mixture of isomers) [Compound 2084], 209 nM; for `CC(C)C[C@@H]1NC(=O)[C@H](CCN)NC(=O)[C@@H](CC(C)C)NC(=O)[C@H](CCCN)NC(=O)[C@H](C(C)C)NC(=O)[C@H](Cc2ccc(-c3ccccc3)cc2)NC(=O)[C@H](C(C)C)NC(=O)[C@H](Cc2c[nH]c3ccccc23)NC(=O)[C@H](CC(=O)O)NC(=O)[C@H](Cc2ccc(O)cc2)NC(=O)[C@H](CC(N)=O)NC(=O)CSC[C@@H](C(=O)N[C@@H](C)C(N)=O)NC(=O)[C@H]([C@@H](C)O)NC(=O)[C@H](C(C)C)NC1=O` [Compound 1015] ({CH2CO}-NYDWV[Bip]V[Orn][dL][Dab]LVTCA-NH2; thioether N-14), 23.8 nM.

Regarding `CC(C)C[C@@H]1NC(=O)[C@H](Cc2c[nH]c3ccccc23)NC(=O)[C@H](CC(=O)O)NC(=O)[C@H](Cc2ccc(O)cc2)NC(=O)[C@H](Cc2ccccc2)NC(=O)CSC[C@@H](C(=O)NCC(N)=O)NC(=O)[C@H]([C@@H](C)O)NC(=O)[C@H](C(C)C)NC(=O)[C@H](CC(C)C)NC(=O)[C@H](CC(N)=O)NC(=O)[C@@H](C)NC(=O)[C@H](CN)NC(=O)[C@H](C(C)C)NC(=O)[C@H](Cc2ccc(-c3ccccc3)cc2)NC1=O` [Compound 1074] ({CH2CO}-FYDWL[Bip]V[Dap][dA]NLVTCG-NH2; thioether N-14), under “Jurkat HPD1_PDL1 IC50, Jurkat-PD-1 cells”, the half-inhibitory concentration (IC50) was 124 nM. Consider `Cc1cccc(C[C@@H]2NC(=O)[C@H](CC(=O)O)NC(=O)[C@H](Cc3ccc(C(=O)O)cc3)NC(=O)[C@H](Cc3ccncc3)NC(=O)CSC[C@@H](C(N)=O)NC(=O)[C@H]([C@@H](C)O)NC(=O)[C@H](C(C)(C)C)NC(=O)[C@H](CC3CCCCC3)NC(=O)[C@H](CCN)NC(=O)[C@@H](CC(C)C)NC(=O)[C@H](CCCN)NC(=O)[C@H](CCCNC(N)=O)NC(=O)[C@H](Cc3ccc(-c4ccccc4)cc3)NC(=O)[C@H](C(C)C)NC2=O)c1` [Compound 2266] ({CH2CO}-[4Pal][Phe(4-COOH)]D[Phe(3-Me)]V[Bip][Cit][Orn][dL][Dab][Cha][Tle]TC-NH2; thioether N-14), for which the IC50 under setting [1] worked out at 18.2 nM.
